What all share (assay): In vitro antibacterial evaluation: minimum inhibitory concentration (MIC), broth dilution method
Common to all, as to assay type: cell-based

Assay [1] concerns Streptococcus sp. As to conditions: 18 hours at 35° C. The method, then:
(§1) The minimum inhibitory concentration (MIC), the lowest concentration of the antibiotic which inhibits growth of the test organism, is determined by the broth dilution method using Muller-Hinton II […] (Baltimore Biological Laboratories) following the recommendations of the National Committee for Clinical Laboratory Standards [Methods for dilution antimicrobial susceptibility tests for bacteria that grow aerobically, approved standard M7-A2, National Committee for Clinical Laboratory Standards, Villanova, Pa].
(§2) An inoculum level of 5×10^5 CFU/mL, and a range of antibiotic concentrations (64-0.06 μg/mL) is used. […] The test organisms include a spectrum of Gram-positive bacteria comprised of Staphylococcus sp., Streptococcus sp. and Enterococcus sp. These organisms include recent clinical isolates that are resistant to methicillin, penicillin and/or vancomycin.

Assay [2] deals with Enterococcus sp. As to conditions: broth dilution, 18 hours at 35° C. The procedure: as §1, §2
A general note: Broth dilution looks for growth in wells or tubes with falling amounts of substance.

Assay [3] has as its system Staphylococcus sp. The following applies: 18 hours at 35° C. The procedure: as §1, §2
Where [4] appears, read: Streptococcus pneumoniae (GC 4565), broth dilution.
The mark [5] stands for this setting: Streptococcus pneumoniae (GC 1894), broth dilution.
[6] abbreviates: Streptococcus agalactiae (GC 4564), broth dilution.
[7] abbreviates: Streptococcus pneumoniae (ATCC 6301), broth dilution.
[8] abbreviates: Streptococcus pyogenes (GC 4563), broth dilution.
Where [9] appears, read: broth dilution, inoculum 5×10^5 CFU/mL.

Converted amounts (≈) assume the structure as drawn. Numbered stars: 1 amine (or outer) side, 2 acyl side, 3 side chain; on linkers, the order of the positions; unused ones are H or OH. Square brackets hold non-standard residues; d marks the D form. Peptide text beside a SMILES is read from it. X5 = N=C1NCC(C(O)[C@@H](N[*:1])C(=O)[*:2])N1; X4 = N=C1NCC(C(O)[C@H](N[*:1])C(=O)[*:2])N1; Cha = N[C@@H](CC1CCCCC1)C(=O)O; dCha = N[C@H](CC1CCCCC1)C(=O)O

For the compound `CCC(=O)Nc1cc(CC2NC(=O)C(C(C)c3ccccc3)NC(=O)CNC(=O)C(CO)NC(=O)C(C(O)C3CNC(=N)N3C3OC(CO)C(O)C(O)C3O)NC(=O)C(C(O)C3CNC(=N)N3)NC2=O)ccc1O` (stereo not drawn) [Example 14, Cyclo[glycyl-β-methylphenylalanyl-3-(propanamido)tyrosyl-3-(2-iminoimidazolidin-4-yl)seryl-3-(3-hexopyranosyl-2-iminoimidazolidin-4-yl)serylseryl]], the “MIC Streptococcus pneumoniae (GC 4565)” value in assay [1] (setting [4]) and in assay [1] (broth dilution) was 64 µg/mL (≈ 61.4 µM) throughout.

Take `CC(C)C(=O)Nc1cc(CC2NC(=O)C(C(C)c3ccccc3)NC(=O)CNC(=O)C(CO)NC(=O)C(C(O)C3CNC(=N)N3C3OC(CO)C(O)C(O)C3O)NC(=O)C(C(O)C3CNC(=N)N3)NC2=O)ccc1O` (stereo not drawn) [Example 15, Cyclo[glycyl-β-methylphenylalanyl-3-(2-methylpropanamido)tyrosyl-3-(2-iminoimidazolidin-4-yl)seryl-3-(3-hexopyranosyl-2-iminoimidazolidin-4-yl)serylseryl]]: the “MIC Streptococcus pneumoniae (GC 4565)” value in assay [1] (setting [4]) and in assay [1] (broth dilution) was 64 µg/mL (≈ 60.6 µM) each time.

`Cc1ccc(OC(=O)Nc2cc(CC3NC(=O)C(C(C)c4ccccc4)NC(=O)CNC(=O)C(CO)NC(=O)C(C(O)C4CNC(=N)N4C4OC(CO)C(O)C(O)C4O)NC(=O)C(C(O)C4CNC(=N)N4)NC3=O)ccc2O)cc1` (stereo not drawn) [Example 19, Cyclo[glycyl-β-methylphenylalanyl-3-[[(4-methylphenoxy)carbonyl]amino]tyrosyl-3-(2-iminoimidazolidin-4-yl)seryl-3-(3-hexopyranosyl-2-iminoimidazolidin-4-yl)serylseryl]]: the “MIC Streptococcus pneumoniae (GC 1894)” value in assay [1] (setting [5]) and in assay [1] (broth dilution) was 64 µg/mL (≈ 57.1 µM) in each case.

With `CC(c1ccccc1)C1NC(=O)CNC(=O)C(CO)NC(=O)C(C(O)C2CNC(=N)N2C2OC(CO)C(O)C(O)C2O)NC(=O)C(C(O)C2CNC(=N)N2)NC(=O)C(Cc2ccc3oc(=O)[nH]c3c2)NC1=O` (stereo not drawn) [Example 22, Cyclo[3-(2,3-dihydro-2-oxo-1,3-benzoxazol-5-yl)alanyl-3-(2-iminoimidazolidin-4-yl)seryl-3-(3-hexopyranosyl-2-iminoimidazolidin-4-yl)serylserylglycyl-β-methylphenylalanyl]], the “MIC Enterococcus faecium (GC 4557)” value in assay [2] (Enterococcus faecium (GC 4557)) and in assay [2] was 64 µg/mL (≈ 63.2 µM) in each case. Also, the “MIC Streptococcus agalactiae (GC 4564)” value in assay [1] (setting [6]) and in assay [1] (broth dilution) was 32 µg/mL (≈ 31.6 µM) in each case. Further, the “MIC Streptococcus pneumoniae (ATCC 6301)” value in assay [1] (setting [7]) and in assay [1] (broth dilution) was 8 µg/mL (≈ 7.91 µM) throughout. Also, the “MIC Streptococcus pneumoniae (GC 1894)” value in assay [1] (setting [5]) and in assay [1] (broth dilution) was 8 µg/mL (≈ 7.91 µM) in each case. The “MIC Streptococcus pneumoniae (GC 4565)” value in assay [1] (setting [4]) and in assay [1] (broth dilution) was 8 µg/mL (≈ 7.91 µM) each time. In addition, the “MIC Streptococcus pyogenes (GC 4563)” value in assay [1] (setting [8]) and in assay [1] (broth dilution) was 32 µg/mL (≈ 31.6 µM) throughout.

Consider `Cc1cccc(Oc2ccc(-c3nc4cc(C[C@@H]5NC(=O)[C@H](C(C)c6ccccc6)NC(=O)CNC(=O)[C@H](CO)NC(=O)[C@H](C(O)C6CNC(=N)N6)NC(=O)[C@H](C(O)C6CNC(=N)N6)NC5=O)ccc4o3)cc2)c1` (stereo partly drawn) [Example 41, Cyclo[3-[2-[4-(3-methylphenoxy)phenyl]benzoxazol-5-yl]alanyl-3-(2-iminoimidazolidin-4-yl)-seryl-3-(2-iminoimidazolidin-4-yl)serylserylglycyl-β-methylphenylalanyl]], for which, in assay [2] (Enterococcus faecalis (GC 6189)), the “MIC Enterococcus faecalis (GC 6189)” value was above 64 µg/mL. For the same compound, the “MIC Staphylococcus haemolyticus (GC 4546)” value in assay [3] (strain GC 4546, broth dilution) was found to be 64 µg/mL (≈ 63 µM). In addition, the “MIC Coagulase Negative Staphylococcus (GC 4547)” value in assay [3] (strain GC 4547, broth dilution) turned out to be 64 µg/mL (≈ 63 µM). Moreover, the “MIC Coagulase Negative Staphylococcus (GC 4548)” value in assay [3] (strain GC 4548, broth dilution) is above 64 µg/mL. Further, in assay [3] (strain GC 4549, broth dilution), the “MIC Coagulase Negative Staphylococcus (GC 4549)” value was 32 µg/mL (≈ 31.5 µM). Besides, the “MIC Coagulase Negative Staphylococcus (GC 4551)” value in assay [3] (strain GC 4551, broth dilution) worked out at 64 µg/mL (≈ 63 µM).

Regarding `CC(C1CCCCC1)C1NC(=O)CNC(=O)C(CO)NC(=O)C(C(O)C2CNC(=N)N2C2OC(CO)C(O)C(O)C2O)NC(=O)C(C(O)C2CNC(=N)N2)NC(=O)C(CC2CCC(OC3OC(CO)C(OC4OC(CO)C(O)C(O)C4O)C(O)C3O)CC2)NC1=O` (stereo not drawn) [Example 53a, Cyclo[3-[4-[(4-O-hexopyranosylhexopyranosyl)oxy]cyclohexyl]alanyl-3-(2-iminoimidazolidin-4-yl)seryl-3-(3-hexopyranosyl-2-iminoimidazolidin-4-yl)serylserylglycyl-3-cyclohexyl-2-aminobutanoyl]], the “MIC Streptococcus agalactiae (GC 4564)” value in assay [1] (setting [6]) and in assay [1] (broth dilution) was 64 µg/mL (≈ 49 µM) throughout. Besides, the “MIC Streptococcus pneumoniae (ATCC 6301)” value in assay [1] (setting [7]) and in assay [1] (broth dilution) was 64 µg/mL (≈ 49 µM) throughout. Besides, the “MIC Streptococcus pneumoniae (GC 1894)” value in assay [1] (setting [5]) and in assay [1] (broth dilution) was 32 µg/mL (≈ 24.5 µM) throughout. Further, the “MIC Streptococcus pneumoniae (GC 4565)” value in assay [1] (setting [4]) and in assay [1] (broth dilution) was 64 µg/mL (≈ 49 µM) in each case. Moreover, the “MIC Streptococcus pyogenes (GC 4563)” value in assay [1] (setting [8]) and in assay [1] (broth dilution) was 64 µg/mL (≈ 49 µM) in each case.

Regarding `N=C1NCC(C(O)[C@@H]2NC(=O)[C@@H](CC3CCCCC3)NC(=O)[C@H](CC3CCCCC3)NC(=O)CNC(=O)[C@H](CO)NC(=O)[C@@H](C(O)C3CNC(=N)N3)NC2=O)N1` (stereo partly drawn) [Example 58, Cyclo[3-cyclohexylalanyl-3-cyclohexylalanyl-3-(2-iminoimidazolidin-4-yl)seryl-3-(2-iminoimidazolidin-4-yl)-serylserylglycyl]] (cyclo([Cha][dCha][X4][X5]SG)), in assay [3] (broth dilution), the “MIC Coagulase Negative Staphylococcus (GC 4547)” value came to 4 µg/mL (≈ 5.06 µM), the “MIC Coagulase Negative Staphylococcus (GC 4548)” value turned out to be 4 µg/mL (≈ 5.06 µM), the “MIC Coagulase Negative Staphylococcus (GC 4549)” value is 4 µg/mL (≈ 5.06 µM) and the “MIC Coagulase Negative Staphylococcus (GC 4551)” value came out at 8 µg/mL (≈ 10.1 µM). For the same compound, in assay [3] (broth dilution), the “MIC Staphylococcus haemolyticus (GC 4546)” value was determined as 4 µg/mL (≈ 5.06 µM). Besides, the “MIC Staphylococcus aureus (ATCC 29213)” value in assay [3] (strain ATCC 29213, broth dilution) stood at 16 µg/mL (≈ 20.2 µM). In assay [3] (strain GC 4542, broth dilution), the “MIC Staphylococcus aureus (GC 4542)” value was 16 µg/mL (≈ 20.2 µM). For the same compound, in assay [3] (strain GC 4544, broth dilution), the “MIC Staphylococcus aureus (GC 4544)” value turned out to be 16 µg/mL (≈ 20.2 µM).

As to `CC(c1ccccc1)C1NC(=O)CNC(=O)C(CO)NC(=O)C(C(O)C2CNC(=N)N2C2OC(CO)C(O)C(O)C2O)NC(=O)C(C(O)C2CNC(=N)N2)NC(=O)C(Cc2ccc(OC3OC(CO)C(OC4OC(CO)C(O)C(O)C4OCc4ccc(OCc5ccccc5)cc4)C(O)C3O)cc2)NC1=O` (stereo not drawn) [Example 231b, Cyclo[glycyl-β-methylphenylalanyl-O-[4-O-[2-O-[4-(phenylmethoxy)benzyl]hexopyranosyl]-hexopyranosyl]tyrosyl-3-(2-iminoimidazolidin-4-yl)seryl-3-(3-hexopyranosyl-2-iminoimidazolidin-4-yl)serylseryl]], the “MIC Coagulase Negative Staphylococcus (GC 6257)” value in assay [3] (Coagulase Negative Staphylococcus (GC 6257)) was in the range of 12 to 32 µg/mL. Moreover, the “MIC Streptococcus agalactiae (GC 4564)” value in assay [1] (Streptococcus agalactiae (GC 4564)) and in assay [1] (setting [9]) was 1 to 8 µg/mL throughout. Also, the “MIC Streptococcus pneumoniae (GC 1894)” value in assay [1] (Streptococcus pneumoniae (GC 1894)) and in assay [1] (setting [9]) was below 0.06 to 2 µg/mL throughout. Further, the “MIC Streptococcus pneumoniae (GC 4565)” value in assay [1] (Streptococcus pneumoniae (GC 4565)) and in assay [1] (setting [9]) was 0.5 to 8 µg/mL throughout. In addition, the “MIC Streptococcus pyogenes (GC 4563)” value in assay [1] (Streptococcus pyogenes (GC 4563)) and in assay [1] (setting [9]) was 1 to 8 µg/mL throughout.

These data come from patent publication US8247211B2, “Glycopeptide antibiotics” (American Cyanamid Company, priority 2001, dated 2012).
